The results in this text go back to PubChem BioAssay AID1259407 (Chemical Carcinogenesis Research Information System (CCRIS), 2018).

In the series the test system is CCRIS mutagenicity, Ames/micronucleus/aberration tests. Briefly: CCRIS mutagenicity studies.
[1] abbreviates: Test System: AMES SALMONELLA TYPHIMURIUM, Strain/Indicator: TA97, Metabolic Activation: NONE, Method: PREINCUBATION
Where [2] appears, read: Test System: AMES SALMONELLA TYPHIMURIUM, Strain/Indicator: TA98, Metabolic Activation: NONE, Method: PREINCUBATION
The mark [3] stands for this setting: Test System: AMES SALMONELLA TYPHIMURIUM, Strain/Indicator: TA100, Metabolic Activation: HAMSTER, LIVER, S-9, AROCLOR 1254 (10%), Method: PREINCUBATION
Setting [4] is: Test System: AMES SALMONELLA TYPHIMURIUM, Strain/Indicator: TA100, Metabolic Activation: NONE, Method: PREINCUBATION
Setting [5] is: Test System: AMES SALMONELLA TYPHIMURIUM, Strain/Indicator: TA100, Metabolic Activation: NONE, Method: STANDARD PLATE.
Setting [6] is: Test System: AMES SALMONELLA TYPHIMURIUM, Strain/Indicator: TA100, Metabolic Activation: RAT, LIVER, S-9, AROCLOR 1254 (10%), Method: PREINCUBATION
Where [7] appears, read: Test System: AMES SALMONELLA TYPHIMURIUM, Strain/Indicator: TA1535, Metabolic Activation: HAMSTER, LIVER, S-9, AROCLOR 1254 (10%), Method: PREINCUBATION
Setting [8] is: Test System: AMES SALMONELLA TYPHIMURIUM, Strain/Indicator: TA1535, Metabolic Activation: NONE, Method: PREINCUBATION
Setting [9] is: Test System: AMES SALMONELLA TYPHIMURIUM, Strain/Indicator: TA1535, Metabolic Activation: RAT, LIVER, S-9, AROCLOR 1254 (10%), Method: PREINCUBATION
[10] abbreviates: Test System: AMES SALMONELLA TYPHIMURIUM, Strain/Indicator: TA98, Metabolic Activation: NONE, Method: STANDARD PLATE.
Setting [11] is: Test System: AMES SALMONELLA TYPHIMURIUM, Strain/Indicator: TA98, Metabolic Activation: RAT, LIVER, S-9, Method: STANDARD PLATE.
Setting [12] is: Test System: AMES SALMONELLA TYPHIMURIUM, Strain/Indicator: TA100, Metabolic Activation: RAT, LIVER, S-9, Method: STANDARD PLATE.
[13] abbreviates: Test System: AMES SALMONELLA TYPHIMURIUM, Strain/Indicator: TA100, Metabolic Activation: RAT, LIVER, S-9, AROCLOR 1254, Method: PREINCUBATION

Each structure is given as a SMILES string. The source made the active and inactive calls. How the calls were made is not given here.

For the compound `O=C1c2c(O)cccc2Cc2cccc(O)c21`, the mutagenic call is, setting by setting: (Test System: AMES SALMONELLA TYPHIMURIUM, Strain/Indicator: TA97, Metabolic Activation: HAMSTER, LIVER, S-9, AROCLOR 1254 (10%), Method: PREINCUBATION) “inactive; negative”; (Test System: AMES SALMONELLA TYPHIMURIUM, Strain/Indicator: TA97, Metabolic Activation: HAMSTER, LIVER, S-9, AROCLOR 1254 (30%), Method: PREINCUBATION) “inactive; negative”; under setting [1], “inactive; negative”; (Test System: AMES SALMONELLA TYPHIMURIUM, Strain/Indicator: TA97, Metabolic Activation: RAT, LIVER, S-9, AROCLOR 1254 (10%), Method: PREINCUBATION) “inactive; negative”; (Test System: AMES SALMONELLA TYPHIMURIUM, Strain/Indicator: TA97, Metabolic Activation: RAT, LIVER, S-9, AROCLOR 1254 (30%), Method: PREINCUBATION) “inactive; negative”; (Test System: AMES SALMONELLA TYPHIMURIUM, Strain/Indicator: TA98, Metabolic Activation: HAMSTER, LIVER, S-9, AROCLOR 1254 (10%), Method: PREINCUBATION) “inactive; negative”. Moreover, the mutagenic call runs as follows: (Test System: AMES SALMONELLA TYPHIMURIUM, Strain/Indicator: TA98, Metabolic Activation: HAMSTER, LIVER, S-9, AROCLOR 1254 (30%), Method: PREINCUBATION) “inactive; negative”; under setting [2], “inactive; negative”; (Test System: AMES SALMONELLA TYPHIMURIUM, Strain/Indicator: TA98, Metabolic Activation: RAT, LIVER, S-9, AROCLOR 1254 (10%), Method: PREINCUBATION) “inactive; negative”; (Test System: AMES SALMONELLA TYPHIMURIUM, Strain/Indicator: TA98, Metabolic Activation: RAT, LIVER, S-9, AROCLOR 1254 (30%), Method: PREINCUBATION) “inactive; negative”; (Test System: AMES SALMONELLA TYPHIMURIUM, Strain/Indicator: TA100, Metabolic Activation: FISH, LIVER, S-9, 3-METHYLCHOLANTHRENE, Method: STANDARD PLATE) “inactive; negative”; under setting [3], “inactive; negative”. The mutagenic call is “inactive; negative” (Test System: AMES SALMONELLA TYPHIMURIUM, Strain/Indicator: TA100, Metabolic Activation: HAMSTER, LIVER, S-9, AROCLOR 1254 (30%), Method: PREINCUBATION); “inactive; negative” under setting [4]; “inactive; negative” under setting [5]; “inactive; negative” under setting [6]; “inactive; negative” (Test System: AMES SALMONELLA TYPHIMURIUM, Strain/Indicator: TA100, Metabolic Activation: RAT, LIVER, S-9, AROCLOR 1254 (30%), Method: PREINCUBATION); “inactive; negative” under setting [7]. In addition, the mutagenic call (Test System: AMES SALMONELLA TYPHIMURIUM, Strain/Indicator: TA1535, Metabolic Activation: HAMSTER, LIVER, S-9, AROCLOR 1254 (30%), Method: PREINCUBATION) was “inactive; negative”; the mutagenic call under setting [8] was “inactive; negative”; the mutagenic call under setting [9] is “inactive; negative”; the mutagenic call (Test System: AMES SALMONELLA TYPHIMURIUM, Strain/Indicator: TA1535, Metabolic Activation: RAT, LIVER, S-9, AROCLOR 1254 (30%), Method: PREINCUBATION) is “inactive; negative”; the mutagenic call (Test System: AMES SALMONELLA TYPHIMURIUM, Strain/Indicator: TA1537, Metabolic Activation: NONE, Method: STANDARD PLATE) is “inactive; negative”; the mutagenic call (Test System: AMES SALMONELLA TYPHIMURIUM, Strain/Indicator: TA1537, Metabolic Activation: RAT, LIVER, S-9, PHENOBARBITAL AND BETA-NAPHTHOFLAVONE, Method: STANDARD PLATE) was “active; positive”. The mutagenic call is, setting by setting: (Test System: E. COLI, Strain/Indicator: WP2, Metabolic Activation: NONE, Method: STANDARD PLATE) “inactive; negative”; (Test System: E. COLI, Strain/Indicator: WP2, Metabolic Activation: RAT, LIVER, S-9, AROCLOR 1254, Method: STANDARD PLATE) “inactive; negative”; (Test System: E. COLI, Strain/Indicator: WP2 UVRA, Metabolic Activation: NONE, Method: STANDARD PLATE) “inactive; negative”; (Test System: E. COLI, Strain/Indicator: WP2 UVRA, Metabolic Activation: RAT, LIVER, S-9, AROCLOR 1254, Method: STANDARD PLATE) “inactive; negative”.
Take `c1ccc2nc3c(cc2c1)-c1cccc2cccc-3c12`: the mutagenic call runs as follows: under setting [10], “inactive; negative”; under setting [11], “inactive; negative”; under setting [5], “inactive; negative”; under setting [12], “inactive; negative”.
For `CC(C)OCC1CO1` (stereo not drawn), the mutagenic call was “active; positive” under setting [3]; “active; positive” under setting [4]; “active; positive” under setting [6]; “active; positive” under setting [7]; “active; positive” under setting [8]; “active; positive” under setting [9].
Regarding `Cc1cc2ccccc2c2cc3ccccc3cc12`, the mutagenic call is “active; positive” (Test System: AMES SALMONELLA TYPHIMURIUM, Strain/Indicator: TA100, Metabolic Activation: RAT, INTACT HEPATOCYTES, AROCLOR 1254, Method: PREINCUBATION); “active; positive” under setting [13]; “active; positive” (Test System: AMES SALMONELLA TYPHIMURIUM, Strain/Indicator: TA100, Metabolic Activation: RAT, NADPH-FORTIFIED HOMOGENIZED HEPATOCYTES, AROCLOR 1254, Method: PREINCUBATION); “active; positive” (Test System: AMES SALMONELLA TYPHIMURIUM, Strain/Indicator: TA100, Metabolic Activation: RAT, SONICATED HEPATOCYTES, AROCLOR 1254, Method: PREINCUBATION).
As for `O=c1c(=O)c2cccc3ccc4cccc1c4c32`, the mutagenic call reads like this: under setting [2], “inactive; negative”; (Test System: AMES SALMONELLA TYPHIMURIUM, Strain/Indicator: TA98, Metabolic Activation: RAT, LIVER, S-9, AROCLOR 1254, Method: PREINCUBATION) “inactive; negative”; under setting [4], “inactive; negative”; under setting [13], “inactive; negative”.
For the compound `C/C=C/C=C/CCCCCCCOC(C)=O`, the mutagenic call is, setting by setting: under setting [10], “inactive; negative”; under setting [11], “inactive; negative”; under setting [5], “inactive; negative”; under setting [12], “inactive; negative”; (Test System: AMES SALMONELLA TYPHIMURIUM, Strain/Indicator: TA102, Metabolic Activation: NONE, Method: STANDARD PLATE) “inactive; negative”; (Test System: AMES SALMONELLA TYPHIMURIUM, Strain/Indicator: TA102, Metabolic Activation: RAT, LIVER, S-9, Method: STANDARD PLATE) “inactive; negative”.
Take `CC(=O)Nc1cc2c(cc1OC(=O)c1ccccc1)-c1ccccc1C2`: the mutagenic call (Test System: AMES SALMONELLA TYPHIMURIUM, Strain/Indicator: TA98, Metabolic Activation: RAT, LIVER, S-9, AROCLOR 1254, Method: STANDARD PLATE) is “inactive; negative”.
In the case of `O[C@H]1[C@H]2O[C@H]2c2c(c3ccccc3c3ccccc23)[C@@H]1O`, the mutagenic call reads like this: under setting [1], “active; positive”; under setting [2], “active; positive”; under setting [4], “active; positive”; (Test System: AMES SALMONELLA TYPHIMURIUM, Strain/Indicator: TA104, Metabolic Activation: NONE, Method: PREINCUBATION) “active; positive”; (Test System: CHINESE HAMSTER V-79, Strain/Indicator: V-79/6-THIOGUANINE, Metabolic Activation: NONE) “active; positive”.
